Assay results: PubChem BioAssay AID463206 (Broad Institute, 2010)
Active and inactive are the calls of the source.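 How the source made its calls: active means caspase luminescence falls with dose and the half-maximal concentration AC50 from the fitted curve is at or below a set limit; inconclusive means flat fit at 30 to 70% signal loss, or invalid fit; inactive means AC50 above the limit, or signal rises instead.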

Each compound was assayed on INS-1E cytokine-induced caspase-3/7, Caspase-Glo luminescence, 48 h (assay: suppression of cytokine-driven beta-cell apoptosis – INS-1E rat cells, luminescence, orthogonal assay for beta-cell apoptosis protection project, dose response (AID 463206)).
`COc1ccccc1N(CC(=O)N/N=C/c1c(O)ccc2ccccc12)S(C)(=O)=O` was tested, and the AC50 was > 26 µM (inactive).
`CCOc1cccc(/C=N/NC(=O)c2ccc3c(c2)OCCO3)c1O` was tested, and the AC50 was > 26 µM (inactive).
For `Cc1cc(C(=O)C(C)OC(=O)c2ccc(NC(=O)CC#N)cc2)c(C)n1-c1ccc(OC(F)F)cc1` (stereo not drawn), the AC50 was > 26 µM (inactive).
For `CC(=O)Nc1ccc(NC(=O)CN(c2cccc([N+](=O)[O-])c2)S(C)(=O)=O)cc1`, the AC50 was > 26 µM (inactive).
With `O=C(Nc1cccnc1)c1cccs1` the AC50 was > 26 µM (inactive).
For `c1ccc2c(c1)ncn2CCCOc1ccc2c(c1)CCC2`, the AC50 was > 26 µM (inactive).
In the case of `Cc1ccc(/C=N/NC(=O)Cc2ccc(Cl)cc2)c(O)c1`, the AC50 was > 26 µM (inactive).
In the case of `Cc1cc(N/N=C/c2c(O)ccc3ccccc23)nc(-c2ccccc2O)n1`, the AC50 was > 26 µM (inactive).
For `COc1cccc(/C=N/NC(=O)c2ccc(-c3ccccc3)cc2)c1O`, the AC50 was > 26 µM (inactive).
In the case of `COc1ccccc1/C=N/OCc1cc(C(C)=O)ccc1OC`, the AC50 was > 26 µM (inactive).
With `CCOc1cc(/C=N/Nc2cc(C)nc(-n3nc(C)cc3C)n2)ccc1O` the AC50 was > 26 µM (inactive).
In the case of `O=C(COC(=O)Cn1cnc2ccccc2c1=O)Nc1ccc2c(c1)OCO2`, the AC50 was > 26 µM (inactive).
With `Cc1ccc(-c2nc(N/N=C/c3cccnc3)c3ccccc3n2)cc1` the AC50 was > 26 µM (inactive).
`COc1ccc(O)c(/C=N/NC(=O)c2cccc(N3CCCC3=O)c2)c1` was tested, and the AC50 was > 26 µM (inactive).
`COc1ccc(OC)c2sc(N(CCCN(C)C)C(=O)c3ccc(S(=O)(=O)N4CCc5ccccc5C4)cc3)nc12` was tested, and the AC50 was > 26 µM (inactive).
In the case of `COc1ccc(C2C(O)C(c3c[nH]c4ccccc34)=NN2C(=O)CCl)cc1` (stereo not drawn), the AC50 was > 26 µM (inactive).
With `CNC1=C(N(C(C)=O)c2ccc(Br)cc2)C(=O)c2ccccc2C1=O` the AC50 was > 26 µM (inactive).
`CC(C)C(=O)NC(c1ccccc1)c1cc([N+](=O)[O-])c2cccnc2c1O` (stereo not drawn) was tested, and the AC50 was > 26 µM (inactive).
With `Cc1ccc(NC2=CC(=O)C(=O)c3ccccc32)cc1` the AC50 was > 26 µM (inactive).
With `O=C(Nc1ccc(Cc2ccncc2)cc1)c1ccc([N+](=O)[O-])o1` the AC50 was > 26 µM (inactive).
With `CC(C)(C)c1nnc(N/N=C/c2cc(Br)ccc2O)n(N)c1=O` the AC50 was > 26 µM (inactive).
With `CCOC(=O)c1cnc2ccc(OCC)cc2c1N1CCN(c2ccccc2)CC1` the AC50 was > 12 µM (inactive).
`Cn1c(SCC(=O)N/N=C/c2ccc([N+](=O)[O-])s2)nnc1-c1ccc(Cl)cc1` was tested, and the AC50 was > 26 µM (inactive).
For `CCOC(=O)c1ccc(NC(=O)c2cccnc2)cc1`, the AC50 was > 26 µM (inactive).
`CCCC(=O)NC(c1ccc(OC)cc1)c1ccc2cccnc2c1O` (stereo not drawn) was tested, and the AC50 was > 26 µM (inactive).
With `CC(C)(C)c1cnnn1-c1ccc(/C=N/Nc2ccc([N+](=O)[O-])cc2)cc1` the AC50 was > 26 µM (inactive).
With `CC(Oc1ccc(Br)cc1)c1nc2c3ccccc3nc(=S)n2[nH]1` (stereo not drawn) the AC50 was > 26 µM (inactive).
`O=C(O)CCCC(=O)Nc1ccc(C(=O)NCc2cccnc2)cc1` was tested, and the AC50 was > 26 µM (inactive).
For `CCn1c(=O)c(C(=O)Nc2nc3ccccc3[nH]2)c(O)c2ccccc21`, the AC50 was > 26 µM (inactive).
In the case of `O=C1C=C(Nc2ccc(F)cc2)c2ccccc2C1=O`, the AC50 was > 26 µM (inactive).
`CCOC(=O)COc1ccc2ccccc2c1/C=C/[N+](=O)[O-]` was tested, and the AC50 was > 26 µM (inactive).
In the case of `CCC(Sc1nc(C)cc(C)n1)C(=O)NC1=NN=C(c2ccc(C)cc2)CS1` (stereo not drawn), the AC50 was > 26 µM (inactive).
With `COc1ccc(-c2csc(NC(=O)C3CCN(c4ncnc5sc(C)c(C)c45)CC3)n2)cc1OC` the AC50 was > 26 µM (inactive).
In the case of `c1ccc(-[n+]2nc(Nc3cccc4ccccc34)sc2-c2c3ccccc3cc3ccccc23)cc1`, the AC50 was > 26 µM (inactive).
With `CC(NCC(O)COCCC12CC3CC(CC(C3)C1)C2)c1ccccc1` (stereo not drawn) the AC50 was > 26 µM (inactive).
`COc1ccccc1NC(=O)c1nc(S(=O)(=O)Cc2ccccc2)ncc1Cl` was tested, and the AC50 was > 26 µM (inactive).
In the case of `Nc1nonc1-n1nnc(C(=O)N/N=C/c2cc(Cl)ccc2O)c1CN1CCCCCC1`, the AC50 was > 26 µM (inactive).
In the case of `Cc1ccc(C)c(N=Nc2ccc(O)c3ncccc23)c1`, the AC50 was > 26 µM (inactive).
`Cn1nc(-c2ccc(Cl)cc2)nc2c(=O)n(C)c(=O)nc1-2` was tested, and the AC50 was > 26 µM (inactive).
`Cc1sc2ncnc(NCc3cccs3)c2c1C` was tested, and the AC50 was > 26 µM (inactive).
For `CCOc1ccc(OCc2ccc(C(=O)NN=Cc3ccc[nH]3)cc2)cc1`, the AC50 was > 26 µM (inactive).
In the case of `CN(C)S(=O)(=O)c1ccc(Oc2ccc(S(=O)(=O)N(C)C)cc2)cc1`, the AC50 was > 26 µM (inactive).
With `Cc1cccc(NC(=O)Cn2c(/C=C/c3ccccc3)nc3ccccc32)c1` the AC50 was > 26 µM (inactive).
For `O=C1N/C(=N/N=C/c2ccccc2O)SC1Cc1ccc(F)cc1` (stereo not drawn), the AC50 was > 26 µM (inactive).
With `Cc1cccc(NC2=C(NC(=O)c3ccccc3)C(=O)c3ccccc3C2=O)c1` the AC50 was > 26 µM (inactive).
In the case of `COc1ccc(/C=N/N2CCN(Cc3ccccc3)CC2)cc1`, the AC50 was > 26 µM (inactive).
For `CC(C)CN(C(=O)COC(=O)C12CC3CC(CC(Cl)(C3)C1)C2)c1c(N)n(Cc2ccccc2)c(=O)[nH]c1=O`, the AC50 was > 26 µM (inactive).
With `Oc1ccccc1/C=N/Nc1nccnc1Cl` the AC50 was > 26 µM (inactive).
